The source made the active and inactive calls. The rule behind the calls is not given here.
How the values were obtained:
BHK-21 [1] = experiment: Cytotoxicity against MRP1-expressing BHK21 cells assessed as growth inhibition at 20 uM after 72 hrs by MTT assay; type: functional; conditions: Mesocricetus auratus; for inhibition of growth at 20 µM: BHK-21, 72 h, read-out: GI
NIH3T3 [2] = experiment: Cytotoxicity against mouse NIH/3T3 cells assessed as reduction in cell viability at 20 uM after 72 hrs by MTT assay; type: cell-based; conditions: nih3t3, 72 h
NIH3T3 [3] = experiment: Cytotoxicity against MDR1-expressing mouse NIH/3T3 cells assessed as growth inhibition at 20 uM after 72 hrs by MTT assay; type: functional, cell-based
BHK-21 [4] = experiment: Cytotoxicity against wild type BHK21 cells assessed as reduction in cell viability at 20 uM after 72 hrs by MTT assay; type: cell-based, Mesocricetus auratus; conditions: hamster, bhk-21, 72 h
MRP1 [5] = target: T1, MRP1 (Homo sapiens, UniProt P33527); experiment: Inhibition of MRP1 (unknown origin) expressed in HEK293FlpIN cells assessed as reduction in calcein-AM efflux at 20 uM incubated for 30 mins by flow cytometric analysis relative to control; type: cell-based; conditions: HEK293FlpIN cells expressing MRP1, probe calcein-AM
[6] = Inhibition of P-gp (unknown origin) expressed in mouse NIH/3T3 cells assessed as reduction in rhodamine 123 efflux at 20 uM incubated for 30 mins by flow cytometric analysis relative to control; type: cell-based; conditions: Homo sapiens
BCRP (ABCG2) = target: T2, BCRP (ABCG2) (Homo sapiens, UniProt Q9UNQ0); experiment: Inhibition of BCRP (unknown origin) expressed in HEK293 cells assessed as reduction in mitoxantrone efflux at 20 uM incubated for 30 mins by flow cytometric analysis relative to control; type: cell-based; conditions: HEK293 cells expressing BCRP, probe mitoxantrone
T2 sequence (Q9UNQ0 whole entry): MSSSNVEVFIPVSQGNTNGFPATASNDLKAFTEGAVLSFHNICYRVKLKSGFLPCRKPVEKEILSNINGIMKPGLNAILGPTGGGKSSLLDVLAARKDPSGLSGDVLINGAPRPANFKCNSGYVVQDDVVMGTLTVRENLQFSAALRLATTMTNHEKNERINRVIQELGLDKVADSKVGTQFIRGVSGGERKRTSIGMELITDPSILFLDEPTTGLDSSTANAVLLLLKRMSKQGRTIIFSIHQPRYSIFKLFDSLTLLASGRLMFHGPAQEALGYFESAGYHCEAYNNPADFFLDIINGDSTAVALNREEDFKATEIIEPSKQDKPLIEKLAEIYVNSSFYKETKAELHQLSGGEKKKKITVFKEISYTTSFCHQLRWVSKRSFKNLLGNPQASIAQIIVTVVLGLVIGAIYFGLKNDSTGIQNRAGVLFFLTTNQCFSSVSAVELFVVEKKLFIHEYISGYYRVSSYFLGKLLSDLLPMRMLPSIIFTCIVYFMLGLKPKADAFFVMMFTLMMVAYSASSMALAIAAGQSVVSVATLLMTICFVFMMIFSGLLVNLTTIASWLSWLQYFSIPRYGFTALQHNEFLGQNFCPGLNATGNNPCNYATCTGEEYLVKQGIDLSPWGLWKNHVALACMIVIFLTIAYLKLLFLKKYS

[7] = target: T3, Multidrug resistance-associated protein 1 (Homo sapiens, UniProt P33527); experiment: Inhibition of MRP1 (unknown origin) expressed in HEK293FlpIN cells assessed as reduction in calcein-AM efflux incubated for 30 mins by flow cytometric analysis; type: cell-based
[8] = target: T3, Multidrug resistance-associated protein 1; experiment: (§1) Inhibition of MRP1 (unknown origin) expressed in BHK21 cells assessed as GSH efflux at 20 uM incubated for 3 hrs measured every 30 secs for 2 mins by GSH reductase enzyme based assay (reference value: 100%); type: cell-based; conditions: 3 h, 20 µM
BHK-21 [9] = experiment: Resistance ratio of EC50 for MRP1-expressing BHK21 cells to EC50 for wild type BHK21 cells; type: functional, Mesocricetus auratus
BHK-21 [10] = experiment: Cytotoxicity against MRP1-expressing BHK21 cells assessed as cell death after 72 hrs by MTT assay; type: functional, cell-based; conditions: Mesocricetus auratus, BHK-21, 72 h
MRP1 [11] = target: T1, MRP1; experiment: as §1; type: cell-based; conditions: BHK21 cells expressing MRP1, probe GSH

T3 sequence (P33527 whole entry): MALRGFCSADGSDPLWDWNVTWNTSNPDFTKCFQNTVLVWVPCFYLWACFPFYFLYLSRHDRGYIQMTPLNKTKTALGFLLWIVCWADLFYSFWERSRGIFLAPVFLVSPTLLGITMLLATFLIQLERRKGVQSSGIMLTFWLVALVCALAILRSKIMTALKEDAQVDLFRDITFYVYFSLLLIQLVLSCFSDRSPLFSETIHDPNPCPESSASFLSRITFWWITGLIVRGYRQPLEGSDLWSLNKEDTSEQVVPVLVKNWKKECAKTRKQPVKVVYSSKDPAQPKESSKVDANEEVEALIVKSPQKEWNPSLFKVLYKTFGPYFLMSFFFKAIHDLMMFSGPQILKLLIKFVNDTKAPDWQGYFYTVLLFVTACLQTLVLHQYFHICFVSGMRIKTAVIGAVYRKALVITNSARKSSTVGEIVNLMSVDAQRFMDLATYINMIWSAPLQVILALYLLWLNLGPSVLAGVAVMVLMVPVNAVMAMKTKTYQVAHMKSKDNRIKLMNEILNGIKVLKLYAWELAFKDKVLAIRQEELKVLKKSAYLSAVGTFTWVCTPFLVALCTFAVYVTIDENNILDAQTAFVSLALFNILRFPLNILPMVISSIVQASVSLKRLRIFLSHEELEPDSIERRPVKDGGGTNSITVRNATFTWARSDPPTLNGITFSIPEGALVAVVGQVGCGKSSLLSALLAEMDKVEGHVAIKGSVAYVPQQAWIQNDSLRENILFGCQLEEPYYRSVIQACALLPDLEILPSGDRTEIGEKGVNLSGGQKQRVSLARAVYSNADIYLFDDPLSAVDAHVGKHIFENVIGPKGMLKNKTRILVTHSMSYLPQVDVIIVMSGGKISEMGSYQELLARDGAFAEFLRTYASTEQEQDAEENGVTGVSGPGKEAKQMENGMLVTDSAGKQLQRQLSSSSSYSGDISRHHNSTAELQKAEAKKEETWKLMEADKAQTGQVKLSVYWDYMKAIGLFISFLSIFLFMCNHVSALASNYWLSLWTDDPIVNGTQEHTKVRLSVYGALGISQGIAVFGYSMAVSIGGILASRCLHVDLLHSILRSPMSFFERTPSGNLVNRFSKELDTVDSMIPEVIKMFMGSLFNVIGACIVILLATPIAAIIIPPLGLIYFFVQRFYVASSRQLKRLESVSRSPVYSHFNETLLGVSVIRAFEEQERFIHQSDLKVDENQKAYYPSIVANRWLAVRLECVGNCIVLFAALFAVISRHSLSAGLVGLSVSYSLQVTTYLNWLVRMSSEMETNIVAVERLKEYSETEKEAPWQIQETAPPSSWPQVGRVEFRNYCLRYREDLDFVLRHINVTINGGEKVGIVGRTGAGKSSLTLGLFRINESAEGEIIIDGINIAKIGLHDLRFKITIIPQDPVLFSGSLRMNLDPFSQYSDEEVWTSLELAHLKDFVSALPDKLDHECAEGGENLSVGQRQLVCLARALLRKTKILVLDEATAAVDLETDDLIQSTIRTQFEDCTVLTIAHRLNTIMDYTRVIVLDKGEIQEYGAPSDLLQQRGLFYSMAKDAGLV
T1 sequence (P33527 whole entry): as above

| inhibition at 0.5 h, 20 µM (MRP1 [5]) | IC50 [7] | inhibition (INH) ([7]; human, 0.5 h) | inhibition (INH) [8] | inhibition at 3 h, 20 µM (MRP1 [11]) | Structure (SMILES) | inhibition of growth at 20 µM (BHK-21 [1]) | Activity (NIH3T3 [2]) | growth inhibition (GI) (NIH3T3 [3]) | Activity (BHK-21 [4]) | inhibition [6] | inhibition at 0.5 h, 20 µM (BCRP (ABCG2)) | Ratio EC50 (BHK-21 [9]) | EC50 (BHK-21 [10]) | growth inhibition (GI) (BHK-21 [1]) |
| --- | --- | --- | --- | --- | --- | --- | --- | --- | --- | --- | --- | --- | --- | --- |
| 47.5% | – | – | – | – | CC[C@H]1CN(C)[C@H]2Cc3c([nH]c4ccccc34)/C(=N/N=C\c3ccc([N+](=O)[O-])cc3)C[C@H]1[C@H]2C(=O)OC | 90 to 98% | Non-Toxic | Active | Non-Toxic | 7.5% | 2.2% | – | – | – |
| 80.7% | > 1 µM | Dose-dependent effect | – | – | CC[C@H]1CN(C)[C@H]2Cc3c([nH]c4ccccc34)/C(=N/N=C\c3ccc(O)c(OC)c3)C[C@H]1[C@H]2C(=O)OC | 90 to 98% | Non-Toxic | Active | Non-Toxic | 38.6% | 10.5% | – | – | – |
| 10% | – | – | Not Active | – | CC[C@@H]1CN(C)[C@H]2Cc3c([nH]c4ccccc34)/C(=N/N=C\C=C\c3ccccc3)C[C@H]1[C@H]2C(=O)OC | > 90% | Non-Toxic | Active | Non-Toxic | 26.7% | -2% | – | – | – |
| 14.6% | – | – | – | – | CC[C@@H]1CN(C)[C@H]2Cc3c([nH]c4ccccc34)/C(=N/N=C\c3ccccc3[N+](=O)[O-])C[C@H]1[C@H]2C(=O)OC | 90 to 98% | Non-Toxic | Active | Non-Toxic | 42.9% | -0.1% | – | – | – |
| 10.8% | – | – | – | – | CC[C@@H]1CN(C)[C@H]2Cc3c([nH]c4ccccc34)/C(=N/N=C\c3cccc(Cl)c3)C[C@H]1[C@H]2C(=O)OC | 90 to 98% | Non-Toxic | Active | Non-Toxic | 20.2% | -1.3% | – | – | – |
| 19.1% | – | – | – | – | CC[C@@H]1CN(C)[C@H]2Cc3c([nH]c4ccccc34)/C(=N/N=C\C3CCCC3)C[C@H]1[C@H]2C(=O)OC | – | Non-Toxic | Active | – | 2.7% | -2.3% | – | – | – |
| 12% | – | – | Not Active | – | CC[C@@H]1CN(C)[C@H]2Cc3c([nH]c4ccccc34)/C(=N/N=C\c3cccc(Br)c3)C[C@H]1[C@H]2C(=O)OC | > 90% | Non-Toxic | Active | Non-Toxic | 11.4% | -2.4% | 0.73 | 16.5 µM | – |
| 35.5% | – | – | – | – | CC[C@H]1CN(C)[C@H]2Cc3c([nH]c4ccccc34)/C(=N/N=C\C3CCCC3)C[C@H]1[C@H]2C(=O)OC | – | Non-Toxic | Active | – | 30.3% | 0.8% | – | – | – |
| 30.3% | – | – | – | 63 to 75% | CCC(/C=N\N=C1/C[C@@H]2[C@@H](CC)CN(C)[C@@H](Cc3c1[nH]c1ccccc31)[C@@H]2C(=O)OC)CC | – | Non-Toxic | Active | Non-Toxic | 26.5% | 8.2% | 0.63 | 18 µM | Active |
| 13.6% | – | – | – | – | CC[C@H]1CN(C)[C@H]2Cc3c([nH]c4ccccc34)/C(=N/N=C\c3cccc(Cl)c3)C[C@H]1[C@H]2C(=O)OC | 90 to 98% | Non-Toxic | Active | Non-Toxic | 21.4% | -2.4% | – | – | – |
| 15.9% | – | – | – | 63 to 75% | CC[C@H]1CN(C)[C@H]2Cc3c([nH]c4ccccc34)/C(=N/N=C\C(C)(C)C)C[C@H]1[C@H]2C(=O)OC | – | Non-Toxic | Active | Non-Toxic | 10.3% | 2.4% | 0.74 | 32 µM | Active |
| 20.3% | – | – | – | – | CC[C@H]1CN(C)[C@H]2Cc3c([nH]c4ccccc34)/C(=N/N=C\C=C\c3ccccc3)C[C@H]1[C@H]2C(=O)OC | 90 to 98% | Non-Toxic | Active | Non-Toxic | 45.8% | -0.3% | – | – | – |
| 15.2% | – | – | – | – | CC[C@@H]1CN(C)[C@H]2Cc3c([nH]c4ccccc34)/C(=N/N=C\c3ccc[nH]3)C[C@H]1[C@H]2C(=O)OC | – | Non-Toxic | Active | – | 4.5% | 3.7% | – | – | – |
| 2.5% | – | – | – | 63 to 75% | CC[C@@H]1CN(C)[C@H]2Cc3c([nH]c4ccccc34)/C(=N/N=C\C(C)(C)C)C[C@H]1[C@H]2C(=O)OC | – | Non-Toxic | Active | Non-Toxic | 3.1% | 1.3% | 0.83 | 57 µM | Active |
| 23.4% | – | – | – | – | CC[C@@H]1CN(C)[C@H]2Cc3c([nH]c4ccccc34)/C(=N/N=C\c3ccc([N+](=O)[O-])cc3)C[C@H]1[C@H]2C(=O)OC | > 90% | Non-Toxic | Active | Non-Toxic | 14.7% | 2.9% | – | – | – |
| 12.8% | – | – | – | – | CC[C@H]1CN(C)[C@H]2Cc3c([nH]c4ccccc34)/C(=N/N=C\c3cccc(Br)c3)C[C@H]1[C@H]2C(=O)OC | 90 to 98% | Non-Toxic | Active | Non-Toxic | 28.6% | -3.1% | – | – | – |
| 29.5% | – | – | – | – | CC[C@H]1CN(C)[C@H]2Cc3c([nH]c4ccccc34)/C(=N/N=C\c3ccccc3[N+](=O)[O-])C[C@H]1[C@H]2C(=O)OC | – | Non-Toxic | Active | – | 57.4% | 4.5% | – | – | – |
| 26.4% | – | – | – | 63 to 75% | CCC(/C=N\N=C1/C[C@@H]2[C@H](CC)CN(C)[C@@H](Cc3c1[nH]c1ccccc31)[C@@H]2C(=O)OC)CC | – | Non-Toxic | Active | Non-Toxic | 2.8% | 0.9% | 0.81 | 27.5 µM | Active |
| 56% | – | – | – | 63 to 75% | CC[C@H]1CN(C)[C@H]2Cc3c([nH]c4ccccc34)/C(=N/N=C\c3ccc[nH]3)C[C@H]1[C@H]2C(=O)OC | > 70% | Non-Toxic | Active | Non-Toxic | 27.6% | 13.5% | – | – | – |
